Results: patent US10336762B2 (priority 2017, dated 2019)
Where two headings read alike, the source gives them in different places.

How the values were obtained:
IRAK4 enzyme = IRAK4 enzyme (Homo sapiens (Human), UniProt Q9NWZ3); assay: biochemical; assay type: biochemical; details: IRAK4 enzyme, 500 μM ATP
TNFα = assay: cells; assay type: cell-based, human; details: LPS-stimulated human monocytes, read-out: EC50 TNF
[1] = Homo sapiens, Monocyte, TNFα content
[2] = Homo sapiens, Monocyte, TNFα by TR-FRET

Sequence of IRAK4 enzyme (Q9NWZ3 whole entry): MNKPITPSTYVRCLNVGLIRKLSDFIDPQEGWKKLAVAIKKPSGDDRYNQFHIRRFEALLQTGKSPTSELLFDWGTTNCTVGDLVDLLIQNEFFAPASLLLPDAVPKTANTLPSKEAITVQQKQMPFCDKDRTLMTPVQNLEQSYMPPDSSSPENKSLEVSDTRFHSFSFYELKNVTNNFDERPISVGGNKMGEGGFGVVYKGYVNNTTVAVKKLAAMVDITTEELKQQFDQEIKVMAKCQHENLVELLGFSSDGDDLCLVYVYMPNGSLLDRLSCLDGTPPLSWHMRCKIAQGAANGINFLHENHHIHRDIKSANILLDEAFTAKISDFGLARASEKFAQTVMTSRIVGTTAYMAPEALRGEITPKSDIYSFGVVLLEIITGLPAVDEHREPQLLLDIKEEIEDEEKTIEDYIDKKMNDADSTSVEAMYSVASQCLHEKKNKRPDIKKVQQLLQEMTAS

## COC(C)(C)[C@H](F)CNC(=O)c1cnc(-c2ccc3cc(C#N)cnn23)cc1N[C@H]1CCC[C@@H](O)C1 [Example 518, 6-(3-cyanopyrrolo[1,2-b]pyridazin-7-yl)-N-((R)-2-fluoro-3-methoxy-3-methylbutyl)-4-(((1S,3R)-3-hydroxycyclohexyl)amino) nicotinamide]
IRAK4 enzyme; TR-FRET (HTRF)
  IC50: < 0.001 µM
TNFα; [1]
  EC50: 0.013 µM

## CC(C)Nc1cc(-c2ccc3cccnn23)ncc1C(=O)NC[C@@H](F)C(C)(C)O [Example 817, (R)-N-(2-fluoro-3-hydroxy-3-methylbutyl)-4-(isopropyl-amino)-6-(pyrrolo[1,2-b]pyridazin-7-yl)nicotinamide]
IRAK4 enzyme; TR-FRET
  IC50: 0.006 µM
TNFα; [2]
  EC50: 0.165 µM

## CC(C)(O)[C@H](F)CNC(=O)c1cnc(-c2ccc3cc(C#N)cnn23)cc1Nc1nc(Cc2ccccc2)cs1 [Example 337, (R)-4-((4-benzylthiazol-2-yl)amino)-6-(3-cyanopyrrolo[1,2-b]pyridazin-7-yl)-N-(2-fluoro-3-hydroxy-3-methylbutyl)nicotinamide]
IRAK4 enzyme; TR-FRET
  IC50: 0.005 µM
TNFα; [1]
  EC50: 0.073 µM

## N#Cc1cnn2c(-c3cc(NC45CCC(O)(CC4)CC5)c(C(=O)NCCC4CCCO4)cn3)ccc2c1 (stereo not shown) [Example 346, 6-(3-cyanopyrrolo[1,2-b]pyridazin-7-yl)-4-((4-hydroxybicyclo[2.2.2]octan-1-yl)amino)-N-(2-(tetrahydrofuran-2-yl)ethyl)nicotinamide]
IRAK4 enzyme; TR-FRET
  IC50: 0.001 µM
TNFα; [1]
  EC50: 0.018 µM

## CC(C)(C)OC(=O)CNC(=O)c1cnc(-c2ccc3cc(C#N)cnn23)cc1NC12CCC(O)(CC1)CC2 [Example 808, tert-butyl (6-(3-cyano-pyrrolo[1,2-b]pyridazin-7-yl)-4-((4-hydroxy-bicyclo[2.2.2]octan-1-yl)amino)nicotinoyl) glycinate]
IRAK4 enzyme; TR-FRET
  IC50: < 0.001 µM
TNFα; [2]
  EC50: 0.015 µM

## CNC(=O)c1csc(Nc2cc(-c3ccc4cc(C#N)cnn34)ncc2C(=O)NC[C@@H](F)C(C)(C)O)n1 [Example 338, (R)-2-((2-(3-cyanopyrrolo[1,2-b]pyridazin-7-yl)-5-((2-fluoro-3-hydroxy-3-methylbutyl)carbamoyl)pyridin-4-yl)amino)-N-methylthiazole-4-carboxamide]
IRAK4 enzyme; TR-FRET
  IC50: 0.003 µM
TNFα; [1]
  EC50: 0.304 µM

## COC(=O)N[C@]1(C)CC[C@@H](Nc2cc(-c3ccc4cc(C#N)cnn34)ncc2C(=O)NC[C@@H](F)C(C)(C)O)CC1 [Example 618, methyl ((1R,4r)-4-((2-(3-cyanopyrrolo[1,2-b]pyridazin-7-yl)-5-(((R)-2-fluoro-3-hydroxy-3-methylbutyl)carbamoyl)pyridin-4-yl)amino)-1-methylcyclohexyl) carbamate]
IRAK4 enzyme; TR-FRET (HTRF)
  IC50: 0.004 µM
TNFα; [1]
  EC50: 0.335 µM

## N#Cc1cnn2c(-c3cc(NC45CCC(O)(CC4)CC5)c(C(=O)NC4CCC(NC(=O)C5CC5)CC4)cn3)ccc2c1 (stereo not shown) [Example 506, 6-(3-cyanopyrrolo[1,2-b]pyridazin-7-yl)-N-((1r,4r)-4-(cyclopropane-carboxamido)cyclohexyl)-4-((4-hydroxybicyclo[2.2.2]octan-1-yl)amino) nicotinamide]
IRAK4 enzyme; TR-FRET (HTRF)
  IC50: < 0.001 µM
TNFα; [1]
  EC50: 0.05 µM

## CC(C)(O)[C@H](F)CNC(=O)c1cnc(-c2ccc3cc(C#N)cnn23)cc1Nc1ccc(-c2ccon2)nc1 [Example 775, (R)-6-(3-cyanopyrrolo[1,2-b]pyridazin-7-yl)-N-(2-fluoro-3-hydroxy-3-methylbutyl)-4-((6-(isoxazol-3-yl)pyridin-3-yl)amino)nicotinamide]
IRAK4 enzyme; TR-FRET (HTRF)
  IC50: < 0.001 µM
TNFα; [1]
  EC50: 0.025 µM

## CC(C)(O)[C@H](F)CNC(=O)c1cnc(-c2ccc3cc(C#N)cnn23)cc1Nc1cnc(N)nc1 [Example 658, (R)-4-((2-aminopyrimidin-5-yl)amino)-6-(3-cyano-pyrrolo[1,2-b]pyridazin-7-yl)-N-(2-fluoro-3-hydroxy-3-methylbutyl)nicotinamide]
IRAK4 enzyme; TR-FRET (HTRF)
  IC50: < 0.001 µM
TNFα; [1]
  EC50: 0.037 µM

## COC(=O)NCC1(F)CC(Nc2cc(-c3ccc4cc(C#N)cnn34)ncc2C(=O)NC[C@@H](F)C(C)(C)O)C1 (single isomer, unassigned) [Example 765]
IRAK4 enzyme; TR-FRET (HTRF)
  IC50: 0.006 µM
TNFα; TNFα content
  EC50: 0.323 µM
